Assay results taken from BindingDB's records for doi:10.1021/jm9707030 (Boehringer Ingelheim Pharmaceuticals, 1998).

Legend:
[1] = biological target: T1, Gag-Pol polyprotein [600-1027,R876K]/[600-1155] (Human immunodeficiency virus 1, UniProt P03366, R876K); test: HIV-1 RT Assay
T1 construct: 600-1027; 600-1155

[2] = biological target: T2, Gag-Pol polyprotein [600-1027,Y780C]/[600-1155,Y780C] (Human immunodeficiency virus 1, UniProt P03366, Y780C); test: HIV-1 RT Assay; conditions: pH 7.8; 22 °C
T2 construct: 600-1027; 600-1155

Structure (SMILES)	IC50 [1] [µM]	also measured
CCN1c2ncc(COc3cc[n+]([O-])c(C)c3)cc2C(=O)N(C)c2ccc(Cl)nc21 [2-Chloro-5,11-dihydro-11-ethyl-5-methyl-8-((4-(2-methyl-1-oxo-pyridinyl))oxy)methyl-6H-dipyrido[3,2-b:2 ,3-e][1,4]diazepin-6-one]	0.1	–
CCN1c2ncc(COc3ccccc3O)cc2C(=O)N(C)c2ccc(Cl)nc21 [5-chloro-2-ethyl-13-(2-hydroxyphenoxymethyl)-9-methyl-2,4,9,15-tetraazatricyclo[9.4.0.0^{3,8}]pentadeca-1(11),3,5,7,12,14-hexaen-10-one]	–	IC50 ([1]; pH 7.8, 22 °C): 0.1 µM
CCN1c2ncc(CS(=O)(=O)c3ccccc3)cc2C(=O)N(C)c2ccc(Cl)nc21 [13-[(benzenesulfonyl)methyl]-5-chloro-2-ethyl-9-methyl-2,4,9,15-tetraazatricyclo[9.4.0.0^{3,8}]pentadeca-1(15),3(8),4,6,11,13-hexaen-10-one]	0.1	–
CCN1c2ncc(CNc3cccc(N)c3)cc2C(=O)N(C)c2ccc(Cl)nc21 [13-{[(3-aminophenyl)amino]methyl}-5-chloro-2-ethyl-9-methyl-2,4,9,15-tetraazatricyclo[9.4.0.0^{3,8}]pentadeca-1(11),3,5,7,12,14-hexaen-10-one]	–	IC50 [2]: 0.1 µM
